Data on two compounds can be found in ChEMBL document CHEMBL1155045, “Apoptosis-inducing galactolipids from a cultured marine diatom, Phaeodactylum tricornutum” (2008).

Format in all cases: functional
Assay [1] can be described thus: Induction of apoptosis in mouse W2 cells assessed as cell death at 64 uM after 48 hrs by MTT assay.
Assay [2] can be described thus: Effect on apoptosis-inducing gene deffective mouse D3 cells assessed as cell growth at 64 uM after 48 hrs by MTT assay. The note with it: D3, 48 h, read-out: Activity.
The nature of assay [3]: Induction of apoptosis in mouse W2 cells assessed as cell death at 52 uM after 48 hrs by MTT assay.
The nature of assay [4]: Effect on apoptosis-inducing gene deffective mouse D3 cells assessed as cell growth at 52 uM after 48 hrs by MTT assay. To be noted: D3, 48 h, read-out: Activity.

In the case of `CC/C=C\C/C=C\C/C=C\C/C=C\C/C=C\CC(=O)OC[C@H](CO[C@@H]1O[C@H](CO)[C@H](O)[C@H](O)C1O)OC(=O)CCCC/C=C\C/C=C\C/C=C\C/C=C\CC` (single isomer, unassigned), the Activity in assay [1] was 18%. In addition, in assay [2], the growth at 64 µM was 14%.
`CC/C=C\C/C=C\C/C=C\C/C=C\C/C=C\CCCC(=O)OC[C@H](CO[C@@H]1O[C@H](CO)[C@H](O)[C@H](O)C1O)OC(=O)CCCC/C=C\C/C=C\C/C=C\CCC` (single isomer, unassigned): the Activity in assay [3] is given as 18%. In assay [4], the growth at 52 µM worked out at 10%.
